# Source: ChEMBL document CHEMBL5113502, “Accommodation of ring C expanded deoxyvasicinone in the HDAC inhibitory pharmacophore culminates into a tractable anti-lung cancer agent and pH-responsive nanocarrier” (Eur J Med Chem, 2022)
# Assays:
# A549 = experiment: Induction of apoptosis in human A549 cells assessed as apoptotic bodies formation after 24 hrs by fluorescence microscopic analysis; type: functional, cell-based; conditions: dose 0.1-1 µM, DDE = dose-dependent effect
# Homo sapiens [1] = species: Homo sapiens; experiment: Selectivity index, ratio of IC50 for HDAC 1 (unknown origin) to IC50 for HDAC 3 (unknown origin)
# Homo sapiens [2] = species: Homo sapiens; experiment: Selectivity index, ratio of IC50 for HDAC8 (unknown origin) to IC50 for HDAC 1 (unknown origin)
# Homo sapiens [3] = species: Homo sapiens; experiment: Selectivity index, ratio of IC50 for HDAC 4 (unknown origin) to IC50 for HDAC 1 (unknown origin)
# Histone deacetylase 2 = Histone deacetylase 2 (Homo sapiens, UniProt Q92769); experiment: Inhibition of HDAC2 (unknown origin) by colorimetric method
# Homo sapiens [4] = species: Homo sapiens; experiment: Selectivity index, ratio of IC50 for HDAC 7 (unknown origin) to IC50 for HDAC 3 (unknown origin)
# Homo sapiens [5] = species: Homo sapiens; experiment: Selectivity index, ratio of IC50 for HDAC 5 (unknown origin) to IC50 for HDAC 3 (unknown origin)
# Histone deacetylase 4 = Histone deacetylase 4 (Homo sapiens, UniProt P56524); experiment: Inhibition of HDAC4 (unknown origin) by colorimetric method
# Chain of Histone deacetylase 4 (P56524 whole entry): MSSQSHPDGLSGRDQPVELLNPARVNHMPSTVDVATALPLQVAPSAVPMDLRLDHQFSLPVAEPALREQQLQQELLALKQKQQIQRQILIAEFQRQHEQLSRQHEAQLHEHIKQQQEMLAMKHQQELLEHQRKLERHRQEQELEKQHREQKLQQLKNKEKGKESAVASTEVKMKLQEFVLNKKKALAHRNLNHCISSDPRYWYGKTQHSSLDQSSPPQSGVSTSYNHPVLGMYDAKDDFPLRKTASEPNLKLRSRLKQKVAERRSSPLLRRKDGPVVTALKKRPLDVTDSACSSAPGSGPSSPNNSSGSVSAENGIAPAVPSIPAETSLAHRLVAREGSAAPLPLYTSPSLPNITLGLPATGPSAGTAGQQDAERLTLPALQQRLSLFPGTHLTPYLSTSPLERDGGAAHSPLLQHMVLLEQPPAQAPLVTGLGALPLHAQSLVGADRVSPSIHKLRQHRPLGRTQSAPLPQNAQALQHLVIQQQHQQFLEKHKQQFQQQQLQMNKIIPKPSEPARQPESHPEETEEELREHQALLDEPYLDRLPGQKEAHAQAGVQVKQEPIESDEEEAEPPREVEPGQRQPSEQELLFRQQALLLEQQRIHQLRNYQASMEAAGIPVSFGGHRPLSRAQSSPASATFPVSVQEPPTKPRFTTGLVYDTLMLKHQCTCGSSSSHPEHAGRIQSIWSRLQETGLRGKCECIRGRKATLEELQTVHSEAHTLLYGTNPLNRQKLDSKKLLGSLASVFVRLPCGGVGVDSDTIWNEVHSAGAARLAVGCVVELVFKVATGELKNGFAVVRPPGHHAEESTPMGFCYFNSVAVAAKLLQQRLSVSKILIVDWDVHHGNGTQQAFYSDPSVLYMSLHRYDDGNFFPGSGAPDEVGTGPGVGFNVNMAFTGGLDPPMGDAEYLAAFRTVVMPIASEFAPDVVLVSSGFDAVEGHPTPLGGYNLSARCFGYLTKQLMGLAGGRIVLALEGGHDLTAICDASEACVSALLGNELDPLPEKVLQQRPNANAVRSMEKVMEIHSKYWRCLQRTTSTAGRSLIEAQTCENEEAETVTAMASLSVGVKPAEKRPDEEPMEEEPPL
# Chain of Histone deacetylase 2 (Q92769 whole entry): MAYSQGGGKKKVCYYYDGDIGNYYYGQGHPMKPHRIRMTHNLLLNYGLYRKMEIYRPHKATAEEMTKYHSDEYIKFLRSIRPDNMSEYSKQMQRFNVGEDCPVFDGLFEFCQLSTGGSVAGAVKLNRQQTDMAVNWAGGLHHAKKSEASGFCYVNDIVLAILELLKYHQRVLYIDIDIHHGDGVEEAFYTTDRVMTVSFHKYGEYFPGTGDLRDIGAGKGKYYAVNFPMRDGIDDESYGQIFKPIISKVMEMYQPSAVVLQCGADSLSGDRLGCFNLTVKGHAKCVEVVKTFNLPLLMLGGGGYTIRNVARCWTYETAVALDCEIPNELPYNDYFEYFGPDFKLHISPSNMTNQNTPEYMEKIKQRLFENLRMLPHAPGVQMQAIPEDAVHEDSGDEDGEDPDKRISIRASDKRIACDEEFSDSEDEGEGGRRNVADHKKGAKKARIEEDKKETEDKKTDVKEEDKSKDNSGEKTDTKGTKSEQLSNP
smiles,measurement,setting,value
O=C(/C=C/c1ccc(CNc2ccc3nc4n(c(=O)c3c2)CCCCC4)cc1)NO,Activity,A549,Dde
same,Ratio IC50,Homo sapiens [1],0.72
same,Ratio IC50,Homo sapiens [2],3.56
same,Ratio IC50,Homo sapiens [3],32.7
same,IC50,Histone deacetylase 2,1260 nM
same,Ratio IC50,Homo sapiens [4],59.6
same,Ratio IC50,Homo sapiens [5],9.01
same,IC50,Histone deacetylase 4,1630 nM
